Experimental data taken from patent US20100267561A1, “HERBICIDAL PYRIDAZINONE DERIVATIVES” (priority 2007, published 2010).

What was measured:
[1] = test system: wild oat (AVEFA, Avena fatua); test: Test F mixtures with safener cloquintocet-mexyl, pre-/postemergence plant response; type: in vivo; settings: applied alone
Text: (§1) This test evaluated the effect of mixtures of Compound 3, Compound 11, or Compound 12 with the commercial crop safener cloquintocet-mexyl on three plant species. Seeds of test plants consisting of winter wheat (TRZAW, Triticum aestivum), winter barley (HORVX, Hordeum vulgare), and wild oat (AVEFA, Avena fatua) (a weed) were planted into a blend of loam soil and sand and treated preemergence with a directed soil spray using test chemicals formulated in a non-phytotoxic solvent mixture that included a surfactant. At the same time, plants selected from these crop and weed species were treated with postemergence applications of the test chemicals formulated in the same manner. Plants ranged in height from 2 to 18 cm (1- to 4-leaf stage) for postemergence treatments.
(§2) Plants were grown in a greenhouse using supplemental lighting to maintain a photoperiod of about 16 hours; daytime and nighttime temperatures were about 24-30° C. and 19-21° C., respectively. Balanced fertilizer was applied through the watering system. Treatments consisted of Compound 3, Compound 11, or Compound 12 and the above mentioned safener alone and in combination using a spray volume of 457 L/ha. Each treatment was replicated three times. Treated plants and controls were maintained in a greenhouse for 14 to 21 days, after which time all treated plants were compared to controls and visually evaluated. Plant response ratings were calculated as the means of the three replicates and are summarized in Tables F1 to F6, and are based on a scale of 0 to 100 where 0 is no effect and 100 is complete control. Because cloquintocet-mexyl alone caused no injury at the rates tested, the expected effect of a mixture of Compound 3 with cloquintocet-mexyl is the same as the observed effect of Compound 3 applied alone.

[2] = test system: winter barley (HORVX, Hordeum vulgare); test: as above; type: in vivo; settings: applied alone
Text: as §1, §2

[3] = test system: winter wheat (TRZAW, Triticum aestivum); test: as above; type: in vivo; settings: applied alone
Text: as §1, §2

[4] = test system: Canada horseweed (Conyza canadensis); test: Test E pre-/postemergence plant response; type: in vivo; settings: Postemergence, scale 0 to 100
Summary of the method: (§3)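 Greenhouse test. Compound, formulated in a non-phytotoxic solvent with surfactant, is applied preemergence to planted seeds and postemergence to 1- to 4-leaf plants of 2 to 18 cm. Plants are compared with controls after 14 to 21 days and scored 0 (no effect) to 100 (complete control).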

[5] = test system: common ragweed (Ambrosia elation); test: Test E pre-/postemergence plant response; type: in vivo; settings: scale 0 to 100
Summary of the method: as §3

[6] = test system: field bindweed (Convolvulus arvensis); test: Test E pre-/postemergence plant response; type: in vivo; settings: scale 0 to 100
Summary of the method: as §3

[7] = test system: spanishneedles (Bidens bipinnata); test: Test E pre-/postemergence plant response; type: in vivo; settings: scale 0 to 100
Summary of the method: as §3

Compound: 4-[3-(4-chlorophenyl)-5-methyl-1H-pyrazol-3-yl]-5-hydroxy-2-methyl-3(2H)-pyridazinone [Compound 3]
- AVEFA Obsd. (observed effect) plant response rating, scale 0 to 100 ([1]; postemergence, 4 g a.i./ha): 27
- AVEFA Obsd. (observed effect) plant response rating, scale 0 to 100 ([1]; postemergence, 8 g a.i./ha): 67
- AVEFA Obsd. (observed effect) plant response rating, scale 0 to 100 ([1]; postemergence, 16 g a.i./ha): 83
- AVEFA Obsd. (observed effect) plant response rating, scale 0 to 100 ([1]; preemergence, 4 g a.i./ha): 0
- AVEFA Obsd. (observed effect) plant response rating, scale 0 to 100 ([1]; preemergence, 8 g a.i./ha): 35
- AVEFA Obsd. (observed effect) plant response rating, scale 0 to 100 ([1]; preemergence, 16 g a.i./ha): 60
- HORVX Obsd. (observed effect) plant response rating, scale 0 to 100 ([2]; postemergence, 4 g a.i./ha): 0
- HORVX Obsd. (observed effect) plant response rating, scale 0 to 100 ([2]; postemergence, 8 g a.i./ha): 0
- HORVX Obsd. (observed effect) plant response rating, scale 0 to 100 ([2]; postemergence, 16 g a.i./ha): 15
- HORVX Obsd. (observed effect) plant response rating, scale 0 to 100 ([2]; preemergence, 4 g a.i./ha): 10
- HORVX Obsd. (observed effect) plant response rating, scale 0 to 100 ([2]; preemergence, 8 g a.i./ha): 32
- HORVX Obsd. (observed effect) plant response rating, scale 0 to 100 ([2]; preemergence, 16 g a.i./ha): 68
- TRZAW Obsd. (observed effect) plant response rating, scale 0 to 100 ([3]; postemergence, 4 g a.i./ha): 0
- TRZAW Obsd. (observed effect) plant response rating, scale 0 to 100 ([3]; postemergence, 8 g a.i./ha): 0
- TRZAW Obsd. (observed effect) plant response rating, scale 0 to 100 ([3]; postemergence, 16 g a.i./ha): 22
- TRZAW Obsd. (observed effect) plant response rating, scale 0 to 100 ([3]; preemergence, 4 g a.i./ha): 0
- TRZAW Obsd. (observed effect) plant response rating, scale 0 to 100 ([3]; preemergence, 8 g a.i./ha): 33
- TRZAW Obsd. (observed effect) plant response rating, scale 0 to 100 ([3]; preemergence, 16 g a.i./ha): 77

Compound: CCc1cc(-c2ccc(C(F)(F)F)cc2)nn1-c1c(OS(C)(=O)=O)cnn(C)c1=O [Compound 19]
- Plant response rating, Horseweed ([4]; 4 g ai/ha): 0
- Plant response rating, Horseweed ([4]; 8 g ai/ha): 0
- Plant response rating, Horseweed ([4]; 16 g ai/ha): 0
- Plant response rating, Horseweed ([4]; 31 g ai/ha): 0
- Plant response rating, Ragweed ([5]; 4 g ai/ha, Postemergence): 0
- Plant response rating, Ragweed ([5]; 16 g ai/ha, Preemergence): 0
- Plant response rating, Ragweed ([5]; 31 g ai/ha, Preemergence): 0
- Plant response rating, Ragweed ([5]; Postemergence, 8 g ai/ha): 0
- Plant response rating, Ragweed ([5]; Postemergence, 16 g ai/ha): 0
- Plant response rating, Ragweed ([5]; Postemergence, 31 g ai/ha): 0
- Plant response rating, Ragweed ([5]; Preemergence, 4 g ai/ha): 0
- Plant response rating, Field Bindweed ([6]; 4 g ai/ha, Postemergence): 0
- Plant response rating, Field Bindweed ([6]; 8 g ai/ha, Preemergence): 0
- Plant response rating, Field Bindweed ([6]; 16 g ai/ha, Preemergence): 0
- Plant response rating, Field Bindweed ([6]; 31 g ai/ha, Preemergence): 0
- Plant response rating, Field Bindweed ([6]; Postemergence, 8 g ai/ha): 0
- Plant response rating, Field Bindweed ([6]; Postemergence, 16 g ai/ha): 0
- Plant response rating, Field Bindweed ([6]; Postemergence, 31 g ai/ha): 0
- Plant response rating, Field Bindweed ([6]; Preemergence, 4 g ai/ha): 0
- Plant response rating, Spanishneedles ([7]; 4 g ai/ha, Postemergence): 0
- Plant response rating, Spanishneedles ([7]; 16 g ai/ha, Preemergence): 0
- Plant response rating, Spanishneedles ([7]; 31 g ai/ha, Preemergence): 0
- Plant response rating, Spanishneedles ([7]; Postemergence, 8 g ai/ha): 0
- Plant response rating, Spanishneedles ([7]; Postemergence, 16 g ai/ha): 0
- Plant response rating, Spanishneedles ([7]; Preemergence, 4 g ai/ha): 0

Compound: CCc1cc(-c2ccc(C(F)(F)F)cc2)nn1-c1c(O)cnn(C)c1=O [Compound 11, 4-[5-ethyl-3-[4-(trifluoromethyl)phenyl]-1H-pyrazol-1-yl]-5-hydroxy-2-methyl-3(2H)-pyridazinone]
- Plant response rating, Horseweed ([4]; 4 g ai/ha): 0
- Plant response rating, Horseweed ([4]; 8 g ai/ha): 0
- Plant response rating, Horseweed ([4]; 16 g ai/ha): 0
- Plant response rating, Horseweed ([4]; 31 g ai/ha): 0
- Plant response rating, Ragweed ([5]; 4 g ai/ha, Postemergence): 0
- Plant response rating, Ragweed ([5]; 16 g ai/ha, Preemergence): 0
- Plant response rating, Ragweed ([5]; 31 g ai/ha, Preemergence): 0
- Plant response rating, Ragweed ([5]; Postemergence, 8 g ai/ha): 0
- Plant response rating, Ragweed ([5]; Postemergence, 16 g ai/ha): 0
- Plant response rating, Ragweed ([5]; Postemergence, 31 g ai/ha): 0
- Plant response rating, Ragweed ([5]; Preemergence, 4 g ai/ha): 0
- Plant response rating, Field Bindweed ([6]; 4 g ai/ha, Postemergence): 0
- Plant response rating, Field Bindweed ([6]; 8 g ai/ha, Preemergence): 0
- Plant response rating, Field Bindweed ([6]; 16 g ai/ha, Preemergence): 0
- Plant response rating, Field Bindweed ([6]; 31 g ai/ha, Preemergence): 0
- Plant response rating, Field Bindweed ([6]; Postemergence, 8 g ai/ha): 0
- Plant response rating, Field Bindweed ([6]; Postemergence, 16 g ai/ha): 0
- Plant response rating, Field Bindweed ([6]; Postemergence, 31 g ai/ha): 0
- Plant response rating, Field Bindweed ([6]; Preemergence, 4 g ai/ha): 0
- Plant response rating, Spanishneedles ([7]; 4 g ai/ha, Postemergence): 0
- Plant response rating, Spanishneedles ([7]; 16 g ai/ha, Preemergence): 0
- Plant response rating, Spanishneedles ([7]; 31 g ai/ha, Preemergence): 0
- Plant response rating, Spanishneedles ([7]; Postemergence, 8 g ai/ha): 0
- Plant response rating, Spanishneedles ([7]; Postemergence, 16 g ai/ha): 0
- Plant response rating, Spanishneedles ([7]; Postemergence, 31 g ai/ha): 0
- Plant response rating, Spanishneedles ([7]; Preemergence, 4 g ai/ha): 0
- AVEFA Obsd. (observed effect) plant response rating, scale 0 to 100 ([1]; postemergence, 4 g a.i./ha): 75
- AVEFA Obsd. (observed effect) plant response rating, scale 0 to 100 ([1]; postemergence, 8 g a.i./ha): 97
- AVEFA Obsd. (observed effect) plant response rating, scale 0 to 100 ([1]; postemergence, 16 g a.i./ha): 98
- AVEFA Obsd. (observed effect) plant response rating, scale 0 to 100 ([1]; preemergence, 4 g a.i./ha): 58
- AVEFA Obsd. (observed effect) plant response rating, scale 0 to 100 ([1]; preemergence, 8 g a.i./ha): 77
- AVEFA Obsd. (observed effect) plant response rating, scale 0 to 100 ([1]; preemergence, 16 g a.i./ha): 93
- HORVX Obsd. (observed effect) plant response rating, scale 0 to 100 ([2]; postemergence, 4 g a.i./ha): 5
- HORVX Obsd. (observed effect) plant response rating, scale 0 to 100 ([2]; postemergence, 8 g a.i./ha): 55
- HORVX Obsd. (observed effect) plant response rating, scale 0 to 100 ([2]; postemergence, 16 g a.i./ha): 90
- HORVX Obsd. (observed effect) plant response rating, scale 0 to 100 ([2]; preemergence, 4 g a.i./ha): 22
- HORVX Obsd. (observed effect) plant response rating, scale 0 to 100 ([2]; preemergence, 8 g a.i./ha): 70
- HORVX Obsd. (observed effect) plant response rating, scale 0 to 100 ([2]; preemergence, 16 g a.i./ha): 92
- TRZAW Obsd. (observed effect) plant response rating, scale 0 to 100 ([3]; postemergence, 4 g a.i./ha): 18
- TRZAW Obsd. (observed effect) plant response rating, scale 0 to 100 ([3]; postemergence, 8 g a.i./ha): 3
- TRZAW Obsd. (observed effect) plant response rating, scale 0 to 100 ([3]; postemergence, 16 g a.i./ha): 32
- TRZAW Obsd. (observed effect) plant response rating, scale 0 to 100 ([3]; preemergence, 4 g a.i./ha): 32
- TRZAW Obsd. (observed effect) plant response rating, scale 0 to 100 ([3]; preemergence, 8 g a.i./ha): 72
- TRZAW Obsd. (observed effect) plant response rating, scale 0 to 100 ([3]; preemergence, 16 g a.i./ha): 92
- melting point: 202 to 204 °C

Compound: CCc1c(C)c(-c2ccc(Cl)cc2)nn1-c1c(O)cnn(C)c1=O [Compound 26, 4-[3-(4-chlorophenyl)-5-ethyl-4-methyl-1H-pyrazol-1-yl]-5-hydroxy-2-methyl-3(2H)-pyridazinone]
- melting point: 227 to 229 °C
